Results: patent publication US12655142B2 (Merck Patent GmbH, priority 2019, dated 2026)
pIC50: −log10 of the molar value.

Columns and labels:
[1] = Determination of Efflux-Ratio (ER) in Caco-2 cells; conditions: human, Caco-2, pH 7.4
[2] = target: T1, GIST430/654 cell line expressing mutated constitutively active cKIT receptor tyrosine kinase (Δ560-576 deletion and V654A point mutation) (Homo sapiens, UniProt P10721, DEL560-576/V654A); assay: Cellular cKIT autophosphorylation (phospho-Y307-cKIT, Luminex bead assay) in GIST430/654 cells; format: cell-based; conditions: compounds 45 min, read-out: GIST 430/654 IC50
T1 construct: endogenous in cells; host or cells: GIST430/654 cells
Method in brief: (§1)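 GIST430 (Δ560-576) and imatinib-resistant GIST430/654 (plus V654A; grown with 100 nM imatinib) cells were plated in IMDM/15% FCS and treated next day with serially diluted compound for 45 min. Lysates were captured on anti-total-cKIT Luminex beads overnight at 4 °C and probed for phospho-Y307. IC50 was taken from percent of 0.3% DMSO control.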

[3] = Determination of solubility; conditions: 20 mM Sorensen phosphate buffer, pH 7.4, aqueous buffer, kinetic from dmso stock
Description: (§2) In a 96 well filtration plate, 2 μL of a 10 mM solution of the test compound in DMSO is added to 98 μL of 20 mM Sorensen phosphate buffer with pH 7.4. The mixture is incubated at room temperature for 120 min while agitating at 250 rpm followed by centrifugation at 2500 rpm for 3 min. After dilution by a factor of 2, the concentration of the test compound is determined using HPLC/UPLC with detection at a suitable wavelength and by comparison to a corresponding compound standard.

[4] = target: T2, GIST430 cell line expressing constitutive active cKIT receptor tyrosine kinase (Δ560-576 deletion) (Homo sapiens, UniProt P10721, DEL560-576); assay: Cellular cKIT autophosphorylation (phospho-Y307-cKIT, Luminex bead assay) in GIST430 cells; format: cell-based; conditions: cKIT autophosphorylation, GIST430 cells, compounds 45 min; read-out: GIST 430 IC50
T2 construct: endogenous in cells; host or cells: GIST430 cells
Method in brief: as §1

c-Kit(V654A) = target: T3, c-Kit(V654A) (Homo sapiens, UniProt P10721, V654A); assay: c-Kit(V654A) assay (33P-ATP filter binding kinase assay); format: biochemical; conditions: recombinant human c-Kit aa 544-end V654A, ATP 200 μM
T3 construct: recombinant human c-Kit, amino acids 544-end containing the V654A mutation; GST (N)
Method in brief: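 Radiometric filter-binding read-out: substrate 33P incorporation counted by scintillation after P30 filtermat washes in 75 mM phosphoric acid and methanol. Enzyme: N-GST recombinant human c-Kit aa 544-end carrying V654A.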

[5] = pH 7.4
Description: as §2

T1 sequence (P10721 with tags, fused parts or gaps DEL560-576/V654A): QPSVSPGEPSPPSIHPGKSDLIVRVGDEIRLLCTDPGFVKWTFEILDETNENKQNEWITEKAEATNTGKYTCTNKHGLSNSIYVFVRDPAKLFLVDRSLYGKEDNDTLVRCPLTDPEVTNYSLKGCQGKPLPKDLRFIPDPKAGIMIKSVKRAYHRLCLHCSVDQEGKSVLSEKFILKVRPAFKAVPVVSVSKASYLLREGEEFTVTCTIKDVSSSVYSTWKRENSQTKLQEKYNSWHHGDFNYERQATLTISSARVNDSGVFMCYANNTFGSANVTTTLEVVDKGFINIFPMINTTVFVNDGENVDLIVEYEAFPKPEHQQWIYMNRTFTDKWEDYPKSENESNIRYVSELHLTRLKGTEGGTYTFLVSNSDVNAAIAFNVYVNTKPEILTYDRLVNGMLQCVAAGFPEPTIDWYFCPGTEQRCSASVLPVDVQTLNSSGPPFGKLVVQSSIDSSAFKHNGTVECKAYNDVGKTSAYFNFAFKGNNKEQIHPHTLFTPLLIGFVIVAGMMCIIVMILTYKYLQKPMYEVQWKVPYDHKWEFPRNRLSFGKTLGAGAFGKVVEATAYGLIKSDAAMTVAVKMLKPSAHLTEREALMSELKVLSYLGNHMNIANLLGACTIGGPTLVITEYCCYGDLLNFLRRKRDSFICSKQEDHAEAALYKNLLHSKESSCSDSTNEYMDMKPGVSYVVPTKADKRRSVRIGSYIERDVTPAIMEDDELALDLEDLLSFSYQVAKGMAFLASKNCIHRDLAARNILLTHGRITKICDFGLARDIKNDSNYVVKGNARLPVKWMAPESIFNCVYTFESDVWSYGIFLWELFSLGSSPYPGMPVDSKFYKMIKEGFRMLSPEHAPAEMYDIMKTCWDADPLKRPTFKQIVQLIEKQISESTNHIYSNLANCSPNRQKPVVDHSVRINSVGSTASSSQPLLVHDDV
T3 sequence (P10721 544-976 V654A): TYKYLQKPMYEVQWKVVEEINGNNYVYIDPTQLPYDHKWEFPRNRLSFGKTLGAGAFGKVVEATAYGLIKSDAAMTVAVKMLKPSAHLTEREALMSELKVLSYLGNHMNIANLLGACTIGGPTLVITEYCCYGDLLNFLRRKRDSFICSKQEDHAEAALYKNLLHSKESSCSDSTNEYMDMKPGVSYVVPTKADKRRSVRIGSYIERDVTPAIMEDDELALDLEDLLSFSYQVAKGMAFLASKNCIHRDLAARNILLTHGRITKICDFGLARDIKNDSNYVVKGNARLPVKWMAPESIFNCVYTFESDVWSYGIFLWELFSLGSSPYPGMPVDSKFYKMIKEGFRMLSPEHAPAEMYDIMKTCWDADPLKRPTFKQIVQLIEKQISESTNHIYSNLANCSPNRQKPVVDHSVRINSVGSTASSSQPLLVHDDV
T2 sequence (P10721 with tags, fused parts or gaps DEL560-576): as the sequence (P10721 with tags, fused parts or gaps DEL560-576/V654A) above, with A612V counted along it

Compound | efflux ratio at 2 h, 1 μM [1] | pIC50 [2] | solubility at 120 min [3] [µM] | pIC50 [4] | pIC50 (c-Kit(V654A)) | solubility [5]
Cn1cc(-c2ccc(CNc3cc(-c4cnc5cc(OCCN6CCCC6)ccn45)ncn3)cc2)cn1 [A60, [4-(1-methyl-1H-pyrazol-4-yl)-benzyl]-{6-[7-(2-pyrrolidin-1-yl-ethoxy)-imidazo[1,2-a]pyridin-3-yl]-pyrimidin-4-yl}-amine] | < 15 | 7.15 | ≥ 25 | 8.31 | 8.10 | –
Cn1cc(-c2ccc(CNc3cc(-c4cnc5cc(OCCCN6CCCC6)ccn45)ncn3)cc2)cn1 [A75, [4-(1-methyl-1H-pyrazol-4-yl)-benzyl]-{6-[7-(3-pyrrolidin-1-yl-propoxy)-imidazo[1,2-a]pyridin-3-yl]-pyrimidin-4-yl}-amine] | < 15 | 7.23 | ≥ 25 | 8.54 | 8.07 | –
Cn1ncc(-c2ccc(CNc3cc(-c4cnc5cc(OCCCN6CCCC6)ccn45)ncn3)cc2)n1 [A84, [4-(2-methyl-2H-[1,2,3]triazol-4-yl)-benzyl]-{6-[7-(3-pyrrolidin-1-yl-propoxy)-imidazo[1,2-a]pyridin-3-yl]-pyrimidin-4-yl}-amine] | < 15 | 7.35 | ≥ 25 | 8.62 | 8.55 | –
Cn1cc(-c2ccc(CNc3cc(-c4cnc5cc(OCCCN6CCC6)ccn45)ncn3)cc2)cn1 [A102] | – | 7.34 | – | 8.52 | 8.01 | at least 25 μM
Cn1ncc(-c2ccc(CNc3cc(-c4cnc5cc(OCCCN6CCC6)ccn45)ncn3)cc2)n1 [A120, {6-[7-(3-azetidin-1-yl-propoxy)-imidazo[1,2-a]pyridin-3-yl]-pyrimidin-4-yl}-[4-(2-methyl-2H-[1,2,3]triazol-4-yl)-benzyl]-amine] | < 15 | 7.28 | ≥ 25 | 8.64 | 8.54 | –
F[C@@H]1CCN(c2ccc(CNc3cc(-c4cnc5ccccn45)ncn3)cn2)C1 [A153, N-({6-[(3R)-3-fluoropyrrolidin-1-yl]pyridin-3-yl}methyl)-6-{imidazo[1,2-a]pyridin-3-yl}pyrimidin-4-amine] | < 15 | 6.92 | ≥ 25 | 8.19 | 8.19 | –
Cc1nc(-c2ccc(CNc3cc(-c4cnc5cc(OCCCN6CCCC6)ccn45)ncn3)cc2)co1 [A242, [4-(2-methyl-oxazol-4-yl)-benzyl]-{6-[7-(3-pyrrolidin-1-yl-propoxy)-imidazo[1,2-a]pyridin-3-yl]-pyrimidin-4-yl}-amine] | < 15 | 5.00 | ≥ 25 | – | 8.96 | –
c1nc(NCc2ccc(-c3cocn3)cc2)cc(-c2cnc3cc(OCCCN4CCCC4)ccn23)n1 [A252, (4-oxazol-4-yl-benzyl)-{6-[7-(3-pyrrolidin-1-yl-propoxy)-imidazo[1,2-a]pyridin-3-yl]-pyrimidin-4-yl}-amine] | < 15 | 7.33 | ≥ 25 | – | 8.66 | –
